Source: PMC9640980, “Pharmacological evaluation of enantiomerically separated positive allosteric modulators of cannabinoid 1 receptor, GAT591 and GAT593” (Frontiers in Pharmacology, 2022)

What was measured:
hCB1R [1] = target: T1, hCB1R (Homo sapiens, UniProt P21554); experiment: [3H]CP55,940 radioligand binding to hCB1R CHO-K1 cell membranes; settings: for Emax ± S.E.M., [3H]CP55,940 bound: 1 nM [3H]CP55,940, Figure 4A
T1 construct: expressed in transfected cells; host or cells: CHO-K1 cell membranes
Method: The assay began with the addition of transfected hCB1R CHO-K1 cell membranes (25 µg protein per well). The assays were left to equilibrate at room temperature for 2 h before vacuum filtration using a Millipore Sigma 12-well sampling manifold and filter paper that had been soaked in wash buffer. Each reaction well was washed 3 times with a 2 ml aliquot of Tris-binding buffer. The filters were removed then submerged in 5 ml of scintillation fluid (Ultima Gold F, PerkinElmer, Buckinghamshire, United Kingdom). Radioactivity was quantified by liquid scintillation spectrometry.
(§1) Data related to EC50 and E max in Figures 3, 4 were obtained with nonlinear regression models (3-parameter model, GraphPad Prism 9.0, San Diego, CA). […] Significance was determined by one- or two-way ANOVA followed by Tukey’s or Bonferroni’s post-hoc test as indicated. p < 0.05 was considered significant and p values were only employed where ANOVA was used. Data related to Figure 5 was analyzed in GraphPad Prism 9.0 was used to analyze in vivo data and p < 0.05 was considered to be statistically significant. Data are expressed as mean ± SEM. Group sizes for all experiments are described in figure legends.

male C57BL/6 mice [2] = experiment: Triad assessment in mice: catalepsy (bar holding assay); assay type: in vivo, mouse; settings: for catalepsy, compound alone: 0.1, 1, 3, or 10 mg/kg i.p. compared to vehicle, male C57BL/6 mice, Figure 5A; for cataleptic effect, co-administered with THC: 3 and 10 mg/kg i.p. + sub-threshold 1 mg/kg THC, Figure 5D
Method: (§2) Male C57BL/6 mice (Charles River, Senneville, QC) between 4 and 7 months of age were used for these studies. Animals were group housed at the Laboratory Animal Services Unit (LASU) at the University of Saskatchewan (3-5 animals/cage) with a standard 12:12 light-dark cycle, ad libitum access to food and water, and environmental enrichment. Compounds administered intraperitoneally (i.p.) were prepared in vehicle [ethanol and cremophor in saline (1:1:8)]. Catalepsy was assessed in the bar holding assay 5 min after drug administration. Mice were placed so that their forepaws clasped a 0.7 cm ring clamp positioned 4.5 cm above the surface of the testing space ([Zagzoog et al., 2021]). The length of time the ring was held was recorded in seconds. The trial ended if the mouse turned its head or body or made 3 consecutive escape attempts to a maximum of 60 s. Body temperature was measured by rectal thermometer 15 min after drug administration. Anti-nociceptive effects were measured in the warm water (52 ± 2°C) tail-flick test 20 min after drug administration. Response in this case was defined by the removal of the tail from the warm water, with a maximal response time of 20 s. Catalepsy and tail flick data are presented as percent maximum possible effect (MPE). Compounds were administered at the doses indicated. Experimenters were blinded to treatment for all behavioral assessments and analyses. Animals were purchased, rather than bred, to reduce animal numbers. In all cases, experiments were performed with the approval of the University Animal Care Committee (UACC) at the University of Saskatchewan and are in keeping with the guidelines of the Canadian Council on Animal Care (CCAC) and the ARRIVE guidelines ([Kilkenny et al., 2010]).

human CB1R (hCB1R) [3] = target: T2, human CB1R (hCB1R) (Homo sapiens, UniProt P21554); experiment: PathHunter βarrestin2 recruitment assay in hCB1R CHO-K1 cells; assay type: cell-based; settings: for βarrestin2 recruitment to hCB1R, in words: as agonist (and PAM where stated), Figures 3B,D; for EC50: compound alone, hCB1R CHO-K1, 90 min, value (95% CI), Figure 3B, read-out: EC50 (nM) 95% C.I., βarrestin2 recruitment as agonist; for activity in the βarrestin2 recruitment assay as PAM, in words: as PAMs, 100 nM CP55,940
T2 construct: host or cells: CHO-K1 (PathHunter βarrestin2 line)
Method: (§3) HitHunter (cAMP) and PathHunter (βarrestin2) Chinese hamster ovary (CHO)-K1 cells stably-expressing human CB1R (hCB1R) from DiscoveRx (Eurofins, Freemont, CA) were maintained at 37°C, 5% CO2 in DMEM/F-12 containing 10% fetal bovine serum (FBS) and 5 U × 10^4 U penicillin/streptomycin (ThermoFisher, Mississauga, ON). In addition, 800 μg/ml geneticin was used for CHO-K1 hCB1R HitHunter cAMP cells and 800 μg/ml geneticin and 300 μg/ml hygromycin B was used for CHO-K1 hCB1R PathHunter βarrestin2 cells.
βarrestin2 recruitment was determined using the hCB1R CHO-K1 cell PathHunter assay (DiscoveRx). Cells (16,000 cells/well in 96 well plates) were incubated overnight in Opti-MEM (Invitrogen) containing 1% FBS at 37°C and 5% CO2. Cells were then simultaneously treated with experimental compounds (0.10 nM–10 µM) for 90 min. Detection solution was added to cells according to the manufacturer’s protocol (DiscoveRx), and cells were incubated for 60 min at room temperature. Chemiluminescence was measured on a Cytation5 plate reader (top read, gain 200, integration time 10 s).
as §1

male C57BL/6 mice [4] = experiment: Triad assessment in mice: body temperature (rectal thermometer); assay type: in vivo, mouse; settings: for hypothermia, compound alone: 0.1, 1, 3, or 10 mg/kg i.p. compared to vehicle, male C57BL/6 mice, Figure 5B; for hypothermic effect, co-administered with THC: 3 and 10 mg/kg i.p. + sub-threshold 1 mg/kg THC, Figure 5E
Method: as §2

hCB1R [5] = target: T1, hCB1R; experiment: [35S]GTPγS G protein coupling assay, membranes of CHO-K1 cells overexpressing hCB1R; assay type: biochemical; settings: absence of orthosteric agonist, Figure 4B; for EC50: value (95% CI), read-out: EC50 (nM) 95% C.I., [35S]GTPγS binding, compound alone
Method: This assay was conducted as described in previous reports ([Garai et al., 2020]). To summarize, the assay was completed in the presence of [35S]GTPγS (0.1 nM), GDP (30 µM), GTPγS (30 µM) using membranes derived from CHO-K1 cells (1 mg/ml) overexpressing hCB1R. Assay buffer consisted of 50 mM Tris, 10 mM MgCl2, 100 mM NaCl, 0.2 mM EDTA and 1 mM dithiothreitol (DTT) at pH 7.4. Membranes were incubated at 30°C for 90 min in a total volume of […]. Reactions were ended by the addition of ice-cold wash buffer (50 mM Tris and 1 mg/ml BSA, pH 7.4) followed by rapid filtration under vacuum through pre-soaked Whatman GF/B glass-fibre filters in a 24-well sampling manifold (Brandel Cell Harvester; Brandel Inc., Gaithersburg, MD, United States). Reaction wells were washed six times with a 1.2 ml aliquots of Tris-binding buffer. Filters were subsequently oven-dried for 60 min and placed in 3 ml of scintillation fluid (Ultima Gold XR, PerkinElmer). Bound radioactivity was determined by liquid scintillation counting. Basal [35S]GTPγS binding was determined in the presence of […] GDP without any compounds present. Non-specific binding was determined in the presence of […] GTPγS.
as §1

human CB1R (hCB1R) [6] = target: T2, human CB1R (hCB1R); experiment: HitHunter cAMP inhibition assay in hCB1R CHO-K1 cells (10 µM forskolin); assay type: cell-based; settings: value (95% CI)
Method: as §3
cAMP inhibition was performed in the presence of 10 µM forskolin (FSK) using the DiscoveRx HitHunter assay in hCB1R CHO-K1 cells. Cells (16,000 cells/well in 96 well plates) were incubated overnight in Opti-MEM (Invitrogen) containing 1% FBS at 37°C and 5% CO2. Opti-MEM media was removed and replaced with cell assay buffer (DiscoveRx) and then cells were simultaneously treated with 10 µM FSK and experimental compounds (0.10 nM–10 µM) for 90 min cAMP antibody solution and working detection solutions were added according to the manufacturer’s protocol (DiscoveRx), and cells were incubated for 60 min at room temperature. cAMP solution A was added according to the manufacturer’s protocol (DiscoveRx) and cells were incubated for an additional 60 min at room temperature before chemiluminescence was measured on a Cytation5 plate reader (top read, gain 200, integration time 10 s).
as §1

male C57BL/6 mice [7] = experiment: Triad assessment in mice: nociception (warm water tail-flick test); assay type: in vivo, mouse; settings: for anti-nociceptive effects (tail flick), compound alone: 0.1, 1, 3, or 10 mg/kg i.p. compared to vehicle, male C57BL/6 mice, Figure 5C; for anti-nociceptive effect (tail flick), co-administered with THC: 3 and 10 mg/kg i.p. + sub-threshold 1 mg/kg THC, Figure 5F
Method: as §2

male C57BL/6 mice [8] = system: male C57BL/6 mice; design: method as in Garai et al., 2020; settings: significant relative to vehicle at 3 and 10 mg/kg; ref Garai et al., 2020; cited from earlier work
male C57BL/6 mice [9] = system: male C57BL/6 mice; design: method as in Garai et al., 2020; settings: 0.1, 1, 3, or 10 mg/kg (i.p.) compared to vehicle; ref Garai et al., 2020; cited from earlier work
male C57BL/6 mice [10] = system: male C57BL/6 mice; design: method as in Garai et al., 2020; settings: 0.1, 1, 3, or 10 mg/kg (i.p.) compared to vehicle; ref Garai et al., 2020; cited from earlier work; remark: listed apart in the source
[11] = design: method as in Garai et al., 2020; settings: racemic mixtures; ref Garai et al., 2020; cited from earlier work
[12] = 100 nM CP55,940 + compound, Figure 3C, read-out: EC50 (nM) 95% C.I., cAMP inhibition as PAM
[13] = compound alone, hCB1R CHO-K1, 90 min, Figure 3A, read-out: EC50 (nM) 95% C.I., cAMP inhibition as agonist

T1 sequence (P21554 whole entry): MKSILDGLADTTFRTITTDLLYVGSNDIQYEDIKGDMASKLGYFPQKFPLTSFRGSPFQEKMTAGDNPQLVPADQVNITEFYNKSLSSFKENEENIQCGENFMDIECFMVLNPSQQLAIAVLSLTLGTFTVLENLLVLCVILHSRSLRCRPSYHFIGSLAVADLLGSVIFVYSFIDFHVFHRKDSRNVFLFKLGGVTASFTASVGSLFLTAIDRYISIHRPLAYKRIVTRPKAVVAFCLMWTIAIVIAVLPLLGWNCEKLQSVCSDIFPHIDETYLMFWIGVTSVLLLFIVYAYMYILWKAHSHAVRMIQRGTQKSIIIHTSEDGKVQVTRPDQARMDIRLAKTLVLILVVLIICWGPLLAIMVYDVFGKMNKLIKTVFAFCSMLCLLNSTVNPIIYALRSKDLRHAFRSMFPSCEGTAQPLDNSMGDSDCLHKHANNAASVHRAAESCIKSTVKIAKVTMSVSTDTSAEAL
T2 sequence (P21554 whole entry): as above

Structure (SMILES)	EC50 (hCB1R [1])	Emax ± S.E.M., [3H]CP55,940 bound (hCB1R [1])	catalepsy, compound alone (male C57BL/6 mice [2])	cataleptic effect, co-administered with THC (male C57BL/6 mice [2])	βarrestin2 recruitment to hCB1R, in words (human CB1R (hCB1R) [3])	EC50 (human CB1R (hCB1R) [3])	hypothermia, compound alone (male C57BL/6 mice [4])	hypothermic effect, co-administered with THC (male C57BL/6 mice [4])	Emax ± S.E.M., [35S]GTPγS binding, compound alone (hCB1R [5])	EC50 (hCB1R [5])	EC50 (human CB1R (hCB1R) [6]; [12])	EC50 (human CB1R (hCB1R) [6]; [13])	anti-nociceptive effects (tail flick), compound alone (male C57BL/6 mice [7])	anti-nociceptive effect (tail flick), co-administered with THC (male C57BL/6 mice [7])	activity in the βarrestin2 recruitment assay as PAM, in words (human CB1R (hCB1R) [3])	anti-nociceptive effect in the tail flick assay, racemate alone (male C57BL/6 mice [8])	hypothermia, racemate alone (male C57BL/6 mice [9])	catalepsy, racemate alone (male C57BL/6 mice [10])	metabolic stability and blood brain barrier penetrance, in words [11]
O=[N+]([O-])C[C@@H](c1ccccc1F)c1c(-c2cccc(F)c2)[nH]c2c(F)cccc12 [GAT1667]	28 nM	230 ± 5.4 % radioligand bound	did not produce	significant	recruited βarrestin2 as low-potency agonists and PAMs	> 10000 nM	did not produce	significant	34 ± 2.3 % stimulation above baseline	8 nM	1.8 nM	1.7 nM	did not produce	significant					
O=[N+]([O-])CC(c1ccccc1F)c1c(-c2cccc(F)c2)[nH]c2cc(F)ccc12 (centres unmarked) [GAT1664]	110 nM	140 ± 7.0 % radioligand bound	did not produce		did not recruit βarrestin2	> 10000 nM	did not produce		38 ± 3.1 % stimulation above baseline	110 nM	29 nM	2.8 nM	did not produce		no activity				
O=[N+]([O-])C[C@@H](c1ccccc1F)c1c(-c2cccc(F)c2)[nH]c2cc(F)ccc12 [GAT1665]	140 nM	190 ± 8.5 % radioligand bound	did not produce	significant	recruited βarrestin2 as low-potency agonists and PAMs	> 10000 nM	did not produce	significant	41 ± 4.2 % stimulation above baseline	21 nM	8.6 nM	1.1 nM	did not produce	significant					
O=[N+]([O-])CC(c1ccccc1F)c1c(-c2cccc(F)c2)[nH]c2cc(F)ccc12 (centres unmarked) [GAT591]																dose-dependent anti-nociceptive effect	did not produce	did not produce	
O=[N+]([O-])CC(c1ccccc1F)c1c(-c2cccc(F)c2)[nH]c2c(F)cccc12 (centres unmarked) [GAT1666]	140 nM	140 ± 6.1 % radioligand bound	did not produce		weak ability	> 10000 nM	did not produce		29 ± 2.6 % stimulation above baseline	120 nM	270 nM	1.3 nM	did not produce		no activity				
O=[N+]([O-])CC(c1ccccc1F)c1c(-c2cccc(F)c2)[nH]c2c(F)cccc12 (centres unmarked) [GAT593]																dose-dependent anti-nociceptive effect	did not produce	did not produce	superior to GAT591
